# Reference: PMC10046369, “Low-Affinity/High-Selectivity Dopamine Transport Inhibition Sufficient to Rescue Cognitive Functions in the Aging Rat” (Biomolecules, 2023)
# Experiments:
# Experiment in all cases: biochemical
# Set-up in all cases: KINOMEscan competition binding panel, per cent of control
# Settings in all cases: read-out: %Ctrl @ 2800nM
# [1] = target: T1, ABL1(F317L)-nonphosphorylated (Homo sapiens, UniProt P00519, F317L)
# T1 construct: nonphosphorylated
# Outline: (§1)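 Competition binding panel (KINOMEscan) across 450 human kinases and disease-relevant mutants, run to the contractor's standard protocol. Values are % control: (test signal − positive control signal)/(negative control signal − positive control signal) × 100, with lower values indicating stronger binding.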
# ABL1-nonphosphorylated = target: T2, ABL1-nonphosphorylated (Homo sapiens, UniProt P00519)
# T2 construct: nonphosphorylated
# Outline: as §1
# CAMK1B = target: T3, CAMK1B (Homo sapiens, UniProt Q6P2M8)
# T3 construct: gene PNCK
# Outline: as §1
# CAMK1G = CAMK1G (Homo sapiens, UniProt Q96NX5)
# Outline: as §1
# CAMK4 = CAMK4 (Homo sapiens, UniProt Q16566)
# Outline: as §1
# CDKL2 = CDKL2 (Homo sapiens, UniProt Q92772)
# Outline: as §1
# CSNK1D = CSNK1D (Homo sapiens, UniProt P48730)
# Outline: as §1
# CSNK1G3 = CSNK1G3 (Homo sapiens, UniProt Q9Y6M4)
# Outline: as §1
# DAPK3 = DAPK3 (Homo sapiens, UniProt O43293)
# Outline: as §1
# EGFR = EGFR (Homo sapiens, UniProt P00533)
# Outline: as §1
# EPHA4 = EPHA4 (Homo sapiens, UniProt P54764)
# Outline: as §1
# EPHA8 = EPHA8 (Homo sapiens, UniProt P29322)
# Outline: as §1
# ERBB2 = ERBB2 (Homo sapiens, UniProt P04626)
# Outline: as §1
# FGFR3 = FGFR3 (Homo sapiens, UniProt P22607)
# Outline: as §1
# HASPIN = HASPIN (Homo sapiens, UniProt Q8TF76)
# Outline: as §1
# [2] = target: T4, JAK1(JH1domain-catalytic) (Homo sapiens, UniProt P23458)
# T4 construct: JH1domain-catalytic
# Outline: as §1
# [3] = target: T5, JAK3(JH1domain-catalytic) (Homo sapiens, UniProt P52333)
# T5 construct: JH1domain-catalytic
# Outline: as §1
# KIT(V559D,V654A) = KIT(V559D,V654A) (Homo sapiens, UniProt P10721, V559D/V654A)
# Outline: as §1
# MLK2 = target: T6, MLK2 (Homo sapiens, UniProt Q02779)
# T6 construct: gene MAP3K10
# Outline: as §1
# MST1R = MST1R (Homo sapiens, UniProt Q04912)
# Outline: as §1
# PHKG2 = PHKG2 (Homo sapiens, UniProt P15735)
# Outline: as §1
# PIK3CA(E542K) = PIK3CA(E542K) (Homo sapiens, UniProt P42336, E542K)
# Outline: as §1
# PRKR = target: T7, PRKR (Homo sapiens, UniProt P19525)
# T7 construct: gene EIF2AK2
# Outline: as §1
# PYK2 = target: T8, PYK2 (Homo sapiens, UniProt Q14289)
# T8 construct: gene PTK2B
# Outline: as §1
# RIOK1 = RIOK1 (Homo sapiens, UniProt Q9BRS2)
# Outline: as §1
# [4] = target: T9, RSK4(Kin.Dom.1-N-terminal) (Homo sapiens, UniProt Q9UK32)
# T9 construct: gene RPS6KA6; Kin.Dom.1-N-terminal
# Outline: as §1
# T8 sequence (Q14289 whole entry): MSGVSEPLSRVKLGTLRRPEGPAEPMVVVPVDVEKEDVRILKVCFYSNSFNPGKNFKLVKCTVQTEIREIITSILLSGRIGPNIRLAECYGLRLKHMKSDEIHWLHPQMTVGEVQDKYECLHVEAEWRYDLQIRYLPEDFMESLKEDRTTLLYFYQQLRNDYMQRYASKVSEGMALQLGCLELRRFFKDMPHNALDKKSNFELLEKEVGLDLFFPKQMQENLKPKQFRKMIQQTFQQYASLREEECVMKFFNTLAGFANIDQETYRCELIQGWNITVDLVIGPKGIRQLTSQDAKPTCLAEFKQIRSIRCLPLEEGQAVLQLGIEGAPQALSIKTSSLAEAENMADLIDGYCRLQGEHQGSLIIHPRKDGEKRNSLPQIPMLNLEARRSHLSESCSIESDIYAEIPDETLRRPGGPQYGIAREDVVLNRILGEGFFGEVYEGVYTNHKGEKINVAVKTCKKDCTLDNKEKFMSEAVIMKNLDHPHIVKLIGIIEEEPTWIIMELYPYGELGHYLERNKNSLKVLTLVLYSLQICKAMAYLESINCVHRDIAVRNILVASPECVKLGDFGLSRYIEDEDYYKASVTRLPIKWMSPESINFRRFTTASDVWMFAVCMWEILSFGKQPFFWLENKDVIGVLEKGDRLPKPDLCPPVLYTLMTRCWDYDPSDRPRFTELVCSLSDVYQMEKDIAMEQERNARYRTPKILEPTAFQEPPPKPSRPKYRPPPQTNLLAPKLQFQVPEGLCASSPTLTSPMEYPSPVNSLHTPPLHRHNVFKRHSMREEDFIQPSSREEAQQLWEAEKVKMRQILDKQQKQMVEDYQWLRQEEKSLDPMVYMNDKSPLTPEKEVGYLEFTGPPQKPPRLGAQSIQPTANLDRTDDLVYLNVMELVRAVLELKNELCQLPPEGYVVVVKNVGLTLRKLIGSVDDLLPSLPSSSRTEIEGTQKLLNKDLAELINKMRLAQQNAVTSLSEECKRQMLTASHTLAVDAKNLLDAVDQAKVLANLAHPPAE
# T1 sequence (P00519 whole entry F317L): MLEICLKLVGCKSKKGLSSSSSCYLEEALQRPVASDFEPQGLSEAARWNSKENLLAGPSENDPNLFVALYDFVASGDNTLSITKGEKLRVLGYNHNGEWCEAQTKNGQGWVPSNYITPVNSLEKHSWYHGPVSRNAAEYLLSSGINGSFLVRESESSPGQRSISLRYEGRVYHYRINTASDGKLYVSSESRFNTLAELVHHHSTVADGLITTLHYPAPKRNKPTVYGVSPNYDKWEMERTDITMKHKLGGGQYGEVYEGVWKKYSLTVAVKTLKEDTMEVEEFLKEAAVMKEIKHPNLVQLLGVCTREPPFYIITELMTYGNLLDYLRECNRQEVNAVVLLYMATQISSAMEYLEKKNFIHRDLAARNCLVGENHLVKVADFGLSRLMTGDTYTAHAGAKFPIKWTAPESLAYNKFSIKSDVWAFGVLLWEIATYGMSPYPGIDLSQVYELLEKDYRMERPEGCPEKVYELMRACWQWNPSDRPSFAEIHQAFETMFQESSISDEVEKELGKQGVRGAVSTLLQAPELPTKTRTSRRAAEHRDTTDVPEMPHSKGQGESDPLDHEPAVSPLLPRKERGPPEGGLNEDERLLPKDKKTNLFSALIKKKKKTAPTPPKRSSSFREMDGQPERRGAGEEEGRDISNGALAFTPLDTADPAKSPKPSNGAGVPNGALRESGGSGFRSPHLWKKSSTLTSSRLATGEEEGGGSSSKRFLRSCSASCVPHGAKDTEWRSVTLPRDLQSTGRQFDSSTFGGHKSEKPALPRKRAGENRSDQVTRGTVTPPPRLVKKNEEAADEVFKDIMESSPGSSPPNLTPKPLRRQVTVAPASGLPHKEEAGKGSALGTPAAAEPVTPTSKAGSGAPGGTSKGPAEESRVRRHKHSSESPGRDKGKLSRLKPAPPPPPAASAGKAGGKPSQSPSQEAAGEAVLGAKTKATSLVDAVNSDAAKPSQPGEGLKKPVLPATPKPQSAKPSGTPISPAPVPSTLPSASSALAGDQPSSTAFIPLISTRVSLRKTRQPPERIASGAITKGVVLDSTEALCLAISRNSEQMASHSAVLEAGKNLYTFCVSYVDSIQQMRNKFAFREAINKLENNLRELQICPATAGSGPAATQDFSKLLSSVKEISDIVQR
# KIT(V559D,V654A), sequence (P10721 whole entry V559D/V654A): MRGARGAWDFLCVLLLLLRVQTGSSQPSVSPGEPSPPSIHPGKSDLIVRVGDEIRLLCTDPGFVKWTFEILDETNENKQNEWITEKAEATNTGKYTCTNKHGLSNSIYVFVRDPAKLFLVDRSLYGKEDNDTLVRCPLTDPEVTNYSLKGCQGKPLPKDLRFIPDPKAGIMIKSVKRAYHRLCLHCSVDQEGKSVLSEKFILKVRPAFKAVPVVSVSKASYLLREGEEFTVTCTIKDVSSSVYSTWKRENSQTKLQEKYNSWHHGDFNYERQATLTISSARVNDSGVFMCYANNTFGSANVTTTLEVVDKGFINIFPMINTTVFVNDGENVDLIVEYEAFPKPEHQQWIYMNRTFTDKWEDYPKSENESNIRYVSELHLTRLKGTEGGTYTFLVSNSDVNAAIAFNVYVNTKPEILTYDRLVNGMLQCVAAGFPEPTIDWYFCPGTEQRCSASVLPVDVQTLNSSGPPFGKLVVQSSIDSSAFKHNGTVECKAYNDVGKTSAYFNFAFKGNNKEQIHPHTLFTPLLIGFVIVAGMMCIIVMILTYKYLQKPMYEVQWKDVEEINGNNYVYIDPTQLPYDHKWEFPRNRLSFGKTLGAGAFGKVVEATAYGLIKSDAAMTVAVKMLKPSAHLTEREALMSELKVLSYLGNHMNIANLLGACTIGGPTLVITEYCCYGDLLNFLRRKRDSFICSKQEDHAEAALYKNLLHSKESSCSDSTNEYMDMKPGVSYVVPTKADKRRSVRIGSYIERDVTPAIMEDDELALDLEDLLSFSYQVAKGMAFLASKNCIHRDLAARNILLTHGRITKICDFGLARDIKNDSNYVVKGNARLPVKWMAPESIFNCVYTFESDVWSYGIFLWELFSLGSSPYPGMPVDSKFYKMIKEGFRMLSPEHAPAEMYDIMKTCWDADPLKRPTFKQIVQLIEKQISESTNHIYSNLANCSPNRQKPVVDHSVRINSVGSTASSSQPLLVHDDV
# HASPIN, sequence (Q8TF76 whole entry): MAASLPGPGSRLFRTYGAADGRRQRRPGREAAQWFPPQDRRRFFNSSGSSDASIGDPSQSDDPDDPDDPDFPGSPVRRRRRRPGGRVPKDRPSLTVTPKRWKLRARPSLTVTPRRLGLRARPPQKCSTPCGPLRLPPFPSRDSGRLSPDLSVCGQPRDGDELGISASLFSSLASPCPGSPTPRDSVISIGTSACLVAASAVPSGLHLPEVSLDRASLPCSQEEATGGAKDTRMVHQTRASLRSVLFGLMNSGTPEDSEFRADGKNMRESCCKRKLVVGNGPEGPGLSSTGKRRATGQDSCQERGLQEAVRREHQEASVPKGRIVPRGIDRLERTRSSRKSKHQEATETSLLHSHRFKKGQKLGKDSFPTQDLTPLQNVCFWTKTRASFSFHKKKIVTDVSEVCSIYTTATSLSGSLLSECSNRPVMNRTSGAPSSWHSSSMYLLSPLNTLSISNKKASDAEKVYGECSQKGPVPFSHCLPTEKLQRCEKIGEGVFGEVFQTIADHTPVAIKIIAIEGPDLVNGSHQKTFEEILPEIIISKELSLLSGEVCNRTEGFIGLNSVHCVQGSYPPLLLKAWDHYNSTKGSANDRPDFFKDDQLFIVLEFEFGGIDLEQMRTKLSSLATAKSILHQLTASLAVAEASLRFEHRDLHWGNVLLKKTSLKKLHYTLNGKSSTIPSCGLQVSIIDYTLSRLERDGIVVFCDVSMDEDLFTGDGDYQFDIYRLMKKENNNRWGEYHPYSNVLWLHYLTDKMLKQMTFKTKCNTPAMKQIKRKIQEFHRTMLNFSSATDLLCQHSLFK
# RIOK1, sequence (Q9BRS2 whole entry): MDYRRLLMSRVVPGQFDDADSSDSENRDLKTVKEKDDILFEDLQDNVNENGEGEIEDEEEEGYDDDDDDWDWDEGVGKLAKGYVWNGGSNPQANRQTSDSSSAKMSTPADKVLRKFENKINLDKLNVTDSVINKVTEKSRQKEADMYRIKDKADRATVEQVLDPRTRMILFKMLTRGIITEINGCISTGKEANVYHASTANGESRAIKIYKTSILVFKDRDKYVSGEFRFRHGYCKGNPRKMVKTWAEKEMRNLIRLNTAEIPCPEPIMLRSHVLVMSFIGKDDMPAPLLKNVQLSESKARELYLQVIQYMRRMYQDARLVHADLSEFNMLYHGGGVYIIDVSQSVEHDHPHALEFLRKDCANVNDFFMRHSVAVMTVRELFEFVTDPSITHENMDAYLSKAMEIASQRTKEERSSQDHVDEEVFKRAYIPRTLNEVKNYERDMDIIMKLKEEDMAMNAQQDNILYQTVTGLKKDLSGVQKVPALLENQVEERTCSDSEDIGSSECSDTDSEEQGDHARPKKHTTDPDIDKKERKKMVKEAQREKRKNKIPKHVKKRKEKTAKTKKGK
# DAPK3, sequence (O43293 whole entry): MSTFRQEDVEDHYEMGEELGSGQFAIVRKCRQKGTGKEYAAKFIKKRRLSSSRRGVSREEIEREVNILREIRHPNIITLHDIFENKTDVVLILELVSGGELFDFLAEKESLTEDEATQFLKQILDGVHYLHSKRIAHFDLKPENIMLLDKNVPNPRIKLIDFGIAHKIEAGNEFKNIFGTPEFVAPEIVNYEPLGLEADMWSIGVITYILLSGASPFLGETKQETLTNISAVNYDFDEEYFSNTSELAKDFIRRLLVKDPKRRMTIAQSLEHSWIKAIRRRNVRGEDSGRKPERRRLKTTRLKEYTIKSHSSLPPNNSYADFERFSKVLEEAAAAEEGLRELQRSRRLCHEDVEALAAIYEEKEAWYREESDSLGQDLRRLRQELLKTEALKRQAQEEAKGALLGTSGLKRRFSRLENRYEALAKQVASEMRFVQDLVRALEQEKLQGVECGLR
# T2 sequence (P00519 whole entry): as the sequence (P00519 whole entry F317L) above, with L317F counted along it
structure (smiles),measurement,setting,value
"[O-][S@@+](Cc1cncs1)C(c1ccccc1)c1ccccc1 [S-CE-123, (S)-5-((Benzhydrylsulfinyl)Methyl)Thiazole]",remaining binding at 2.8 µM,[1],100%
same,remaining binding at 2.8 µM,ABL1-nonphosphorylated,93%
same,remaining binding at 2.8 µM,CAMK1B,100%
same,remaining binding at 2.8 µM,CAMK1G,82%
same,remaining binding at 2.8 µM,CAMK4,91%
same,remaining binding at 2.8 µM,CDKL2,89%
same,remaining binding at 2.8 µM,CSNK1D,100%
same,remaining binding at 2.8 µM,CSNK1G3,98%
same,remaining binding at 2.8 µM,DAPK3,96%
same,remaining binding at 2.8 µM,EGFR,92%
same,remaining binding at 2.8 µM,EPHA4,97%
same,remaining binding at 2.8 µM,EPHA8,100%
same,remaining binding at 2.8 µM,ERBB2,100%
same,remaining binding at 2.8 µM,FGFR3,91%
same,remaining binding at 2.8 µM,HASPIN,95%
same,remaining binding at 2.8 µM,[2],93%
same,remaining binding at 2.8 µM,[3],100%
same,remaining binding at 2.8 µM,"KIT(V559D,V654A)",100%
same,remaining binding at 2.8 µM,MLK2,96%
same,remaining binding at 2.8 µM,MST1R,93%
same,remaining binding at 2.8 µM,PHKG2,96%
same,remaining binding at 2.8 µM,PIK3CA(E542K),88%
same,remaining binding at 2.8 µM,PRKR,93%
same,remaining binding at 2.8 µM,PYK2,100%
same,remaining binding at 2.8 µM,RIOK1,77%
same,remaining binding at 2.8 µM,[4],100%
